Converted amounts (≈) assume the structure as drawn. Marks after values point to notes of the source that are not given here.

Data set [1] has as its system isolated rat sciatic nerve. As to the kind of experiment: tissue or blood. The conditions noted are these: for IT50: unit not given in Table 3, seconds per Table 2. The text has this:
The ex vivo studies used both male and female rats weighing between 230 and 250 g. Animals were sacrificed using light anaesthesia with CO2 and cervical dislocation. The sciatic nerve of the rat, consisting of 27,000 sciatic nerve fibres, was isolated in a three-chamber recording bath (Fig. 5b). The sciatic nerves were dissected from the spinal cord to the knee, immersed in oxygenated (O2, 100%) saline solution and cleaned. The composition of the saline was (in mmoles/L): 136 NaCl, 11 glucose, 4.7 KCl, 2.4 CaCl2, 1.1 MgCl2, 1 NaHCO3, 10 HEPES, pH = 7.2). All experiments were performed at a constant temperature, 26.0±1.0°C. […] The nerve was mounted in a three-chambered recording bath made of Plexiglas, which is described elsewhere, [30]. The recording bath consisted of the recording (R in Fig. 5b), perfusion (P) and stimulating (S) chambers, each with a volume of 12 mL. The nCAP (Fig. 5a) was generated by stimulating (1 Hz) the part of the nerve in the stimulating chamber and was recorded in the recording chamber every second using standard electrophysiological methods. The nCAP was monitored throughout the experiment as an indication of the vitality of the nerve fibres in the recording bath. […] Immediately after the nCAP was eliminated, the saline+compound was removed and the nerve was washed out. Then, recovery of the nCAP in normal stagnant saline was monitored for 24 h. It is worth noting that the recording bath is designed in such a way that the chambers with the saline and 2-H (the nerves and the recording electrodes) was shielded from the air by using the cover (c in Fig. 5b) to avoid evaporation of the volatile 2-H. The saline with 2-H was added through a small diameter opening on the cover.
For further data analysis, the amplitude of the nCAPs, estimated from baseline to peak (Fig. 5), were measured at a specific time (every 1.0 s, 1.0 min or 1.0 h) and were expressed as a percentage of the amplitude of the nCAP at t = 0 (which was considered to be 100%). In the neuropharmacological experiments, time t = 0 was considered the time before application of the compound under investigation. […] The data were fitted in the program GraphPad Prism 5.0 using a one-phase exponential decay equation for the IC50. Data were analyzed by one-way ANOVA and Bonferroni’s post hoc tests, when required. Significance was determined using Students t-test or ANOVA as appropriate (p<0.05).

The test system of a further data set is rat sciatic nerve. The conditions noted are these: 80 mM, rat sciatic nerve in vitro; cited from earlier work.
The next data set concerns the target T1, hNav1.6 channels (Homo sapiens, UniProt Q9UQD0).
T1 construct: expressed in transfected cells; host or cells: CHO-K1 (ATCC CCL-61)
The experiment in a line: Patch-clamp (PatchXpress 7000A) on transfected CHO cells, hNav1.6. In kind it is cell-based. The conditions noted are these: CHO cells, n = 6, mean ± SEM, 2-H exposure limited to 3 min. The text has this: To test whether 2-H can act by blocking VGNaCs, the PatchXpress 7000A was used. Mammalian CHO (Chinese hamster ovary) transfected with ion hNav1.2 and hNav1.6 channels cDNAs (SCN2A and SCN8A genes) were exposed to 2-H under both tonic and phasic conditions. The mammalian CHO-K1 epithelial embryonic cell line (ATCC number CCL-61) from Cricetulus griseus was obtained from ATCC, Manassas, VA. CHO-K1 cells were transfected with either hNav1.2 or hNav1.6 channel cDNA (SCN2A and SCN8A genes, respectively) and were exposed to 2-H under both tonic and phasic conditions.
The effects of 2-H were evaluated on hNav1.2 at 0.73, 1.46, 2.19, and 2.92 mg/mL and on hNav1.6 channels at 0.1, 0.36, 0.73, and 1.46 mg/mL, with each concentration tested in at least six cells (n = 6). Cells were exposed to each concentration of 2-H and measurements of the inward current were obtained within the first 3 min of exposure. […] Since the PatchXpress has open cell chambers where the testing occurs, there is no way to hermetically seal the experiment.
Based on this analysis, we estimated the IC50.
Background: In patch-clamp work, channel activity is measured electrically.

The test system of another data set is wax moth larvae (WML). As to the kind of experiment: Locomotory pattern of tethered wax moth larvae after injection. In kind it is in vivo, Galleria mellonella. The conditions noted are these: large WML. The text has this: To monitor the constant locomotory pattern of WML, the probe of a force-displacement transducer (FT-03C, Grass Instrument Company, USA), attached to a micromanipulator, was hooked onto the tail of the WML, while the head was carefully pinned to a wax substrate, [14]. The electrical signal generated by the rhythmic force produced during locomotion was amplified and fed to a computer through a data acquisition card interface (Keithley KPCI 3102, Keithley Instruments, Cleveland, OH, USA). Software designed using the facilities of Labview (Labview 5.1, National Instruments USA) permitted analysis of the recorded data.

Setting [2] is: Table 3, 3.41 mg/mL, unit not given in Table 3, s.

T1 sequence (Q9UQD0 whole entry): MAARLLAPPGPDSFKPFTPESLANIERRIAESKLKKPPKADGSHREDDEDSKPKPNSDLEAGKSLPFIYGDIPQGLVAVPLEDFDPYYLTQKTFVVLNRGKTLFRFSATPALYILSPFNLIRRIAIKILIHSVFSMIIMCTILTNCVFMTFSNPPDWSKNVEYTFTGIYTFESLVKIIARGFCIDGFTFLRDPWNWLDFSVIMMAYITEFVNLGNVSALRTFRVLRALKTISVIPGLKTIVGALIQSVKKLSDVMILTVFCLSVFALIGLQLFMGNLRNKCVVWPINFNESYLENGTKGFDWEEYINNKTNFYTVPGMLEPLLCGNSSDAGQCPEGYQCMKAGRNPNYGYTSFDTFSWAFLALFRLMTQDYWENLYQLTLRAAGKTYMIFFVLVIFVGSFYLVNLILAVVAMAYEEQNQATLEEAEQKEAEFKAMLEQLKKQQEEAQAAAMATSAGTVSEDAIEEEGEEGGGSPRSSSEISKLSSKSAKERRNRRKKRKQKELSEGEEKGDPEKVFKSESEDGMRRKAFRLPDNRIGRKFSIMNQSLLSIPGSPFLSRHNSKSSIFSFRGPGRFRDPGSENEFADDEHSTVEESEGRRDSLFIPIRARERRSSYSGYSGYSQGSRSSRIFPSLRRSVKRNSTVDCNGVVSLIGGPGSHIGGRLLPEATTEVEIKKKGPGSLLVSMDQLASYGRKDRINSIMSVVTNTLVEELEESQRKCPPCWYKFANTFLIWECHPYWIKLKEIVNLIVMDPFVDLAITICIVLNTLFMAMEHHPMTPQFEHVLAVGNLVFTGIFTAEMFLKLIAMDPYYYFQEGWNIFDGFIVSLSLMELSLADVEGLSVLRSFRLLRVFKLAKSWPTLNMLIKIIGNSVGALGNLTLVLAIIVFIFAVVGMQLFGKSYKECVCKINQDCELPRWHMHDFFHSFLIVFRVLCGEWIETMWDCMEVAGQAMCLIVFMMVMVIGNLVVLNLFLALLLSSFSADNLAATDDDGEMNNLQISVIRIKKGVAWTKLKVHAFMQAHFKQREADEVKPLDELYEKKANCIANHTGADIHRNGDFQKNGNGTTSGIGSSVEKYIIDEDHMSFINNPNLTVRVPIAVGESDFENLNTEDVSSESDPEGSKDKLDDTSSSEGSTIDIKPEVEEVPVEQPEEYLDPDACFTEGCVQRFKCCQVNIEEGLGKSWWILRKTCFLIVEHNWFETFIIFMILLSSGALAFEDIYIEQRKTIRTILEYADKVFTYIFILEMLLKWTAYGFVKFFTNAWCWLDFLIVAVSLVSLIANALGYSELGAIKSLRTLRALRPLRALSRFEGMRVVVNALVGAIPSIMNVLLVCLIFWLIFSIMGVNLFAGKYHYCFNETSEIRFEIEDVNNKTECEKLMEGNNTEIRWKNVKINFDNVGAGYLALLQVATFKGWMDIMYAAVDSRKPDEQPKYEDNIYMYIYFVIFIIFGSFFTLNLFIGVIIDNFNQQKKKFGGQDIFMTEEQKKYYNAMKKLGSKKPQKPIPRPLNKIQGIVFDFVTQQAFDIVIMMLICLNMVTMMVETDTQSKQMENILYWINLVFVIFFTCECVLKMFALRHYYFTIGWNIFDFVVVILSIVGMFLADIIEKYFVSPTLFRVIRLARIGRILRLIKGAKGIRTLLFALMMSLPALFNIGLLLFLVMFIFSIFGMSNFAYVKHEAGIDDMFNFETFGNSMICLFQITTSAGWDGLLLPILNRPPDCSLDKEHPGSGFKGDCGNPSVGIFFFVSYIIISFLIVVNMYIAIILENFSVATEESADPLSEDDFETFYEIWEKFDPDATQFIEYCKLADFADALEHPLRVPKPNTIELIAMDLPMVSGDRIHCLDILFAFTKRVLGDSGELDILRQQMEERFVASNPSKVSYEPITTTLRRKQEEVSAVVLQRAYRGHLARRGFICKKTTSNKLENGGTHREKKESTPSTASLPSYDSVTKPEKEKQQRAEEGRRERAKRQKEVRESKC

Consider `CCCCC(C)=O` [2-hexanone], for which the IT0 in data set [1] (setting [2]) was 401.00 ± 33.20 s. The IT50 in data set [1] (Table 3, 3.41 mg/mL) was found to be 74.42 ± 0.79 s.

Take `CCCCCCC(C)=O` [2-octanone]: the IT0 in data set [1] (setting [2]) stood at 555.00 ± 75.00 s. The same compound yielded an IT50 in data set [1] (Table 3, 3.41 mg/mL) of 81.45 ± 1.58 s.

For the compound `CCCC(C)=O` [2-pentanone], the IT0 entry in data set [1] (3.41 mg/mL) was “greater than 24 h”; in data set [1] (setting [2]) it was “No measurable”. The IT50 in data set [1] (Table 3, 3.41 mg/mL) is 390.60 ± 0.10 s.

Turning to `CCCCC(=O)CC` [3-heptanone], in data set [1] (setting [2]), the IT0 is recorded as 258.00±11.47^b seconds. In data set [1] (Table 3, 3.41 mg/mL), this compound showed an IT50 of 40.82 ± 1.67 s.

In data set [1] (setting [2]), `CCCCCC(=O)CC` [3-octanone] returned an IT0 of 722.50 ± 95.66 s. This compound yielded an IT50 in data set [1] (Table 3, 3.41 mg/mL) of 117.10 ± 0.53 s.

As to `CCC(=O)CC` [3-pentanone], the IT0 in data set [1] (setting [2]) came out at 765.00 ± 86.60 s. In data set [1] (Table 3, 3.41 mg/mL), the IT50 is 230.30 ± 1.29 s.

Regarding `CCCC(=O)CCC` [4-heptanone], the IT0 in data set [1] (setting [2]) was 283.57±16.89^b seconds. For the same compound, in data set [1] (Table 3, 3.41 mg/mL), the IT50 amounted to 45.24 ± 0.44 s.

As for `CCN(CC)CC(=O)Nc1c(C)cccc1C` [lidocaine], the “effect on axonal membrane” value with rat sciatic nerve is reported as “disrupts the axonal membrane”. The IC50 at hNav1.6 channels (hNav1.6 IC50, Phasic Experiment) was 299 µM; against hNav1.6 channels (hNav1.6 IC50, Tonic Experiment), 1240 µM; in data set [1] (Rattus norvegicus, read-out: IC50 from concentration-response curves of the IT0 values), 337 µg/mL (≈ 1440 µM). Besides, the “IT0 (time required for 100% inhibition of the nCAP)” value stood at 320.3 ± 14.96 s in data set [1] (1.41 mg/mL), 186.8 ± 8.07 s in data set [1] (2.28 mg/mL), 147.50 ± 9.96 s in data set [1] (3.41 mg/mL) and 101.3 ± 2.16 s in data set [1] (10 mg/mL). The “IT50 (time to inhibit nCAP amplitude to 50% of control)” value in data set [1] (1.41 mg/mL) was found to be 32.23 ± 3.16 s; in data set [1] (2.28 mg/mL), 30.9 ± 0.22 s; in data set [1] (3.41 mg/mL) it was 27.11 ± 3.16 s; in data set [1] (10 mg/mL) it was 12.0 ± 0.95 s. Further, the “recovery of nCAP amplitude after wash with normal saline” value in data set [1] (after elimination of nCAP, remained at this level for at least 24 h, n = 8) came out at 95.5%. The “time to full recovery of locomotory pattern” value in the data set on wax moth larvae (WML) (0.81 mg injected, n = 5) was determined as 6.42 h. The “effect of injection on large WML” value with wax moth larvae (WML) (1.63 mg injected, 12 cases) is “lethal effect”.

These data come from paper PMC3472974, “The Bite of the Honeybee: 2-Heptanone Secreted from Honeybee Mandibles during a Bite Acts as a Local Anaesthetic in Insects and Mammals” (PLoS ONE, 2012).
